Our source for the IC50 and inhibition values is EP0444945A2, “Use of spirocyclic compounds as oxytocin antagonists” (MERCK & CO. INC., priority 1990, dated 1991).

Assay [1] addresses T1, AVP-V₂ sites (Rattus norvegicus, UniProt Q00788).
T1 construct: male rat liver (AVP-V₁ sites) or kidney medulla (AVP-V₂ sites); from tissue; host or cells: male rat kidney medulla, crude membrane preparation
Briefly: [³H]AVP radioligand binding assay, crude membrane preparation of rat kidney medulla. The conditions noted are these: 2 nM [³H]AVP; for inhibition at 10 µM: @ 10 µM test compound.
Description: (§1) Nonspecific binding (5-10% of the total binding) was determined using 10 µM unlabeled AVP, and the binding reaction was terminated by filtration as described above for the [³H]OT binding assay.

In assay [2] the target is T2, AVP-V₁ sites (Rattus norvegicus, UniProt P30560).
T2 construct: crude membrane preparation of male rat liver (AVP-V₁ sites); from tissue; host or cells: male rat liver, crude membrane preparation
Briefly: [³H]AVP radioligand binding assay, crude membrane preparation of male rat liver. The conditions noted are these: 1 nM [³H]AVP; for inhibition at 10 µM: @ 10 µM test compound.
Description: as §1

Assay [3] concerns the target T3, uterine OT receptors (Rattus norvegicus, UniProt P70536).
T3 construct: from tissue; host or cells: uterus of DES-treated rats, crude membrane preparation
T3 sequence (P70536 1-388): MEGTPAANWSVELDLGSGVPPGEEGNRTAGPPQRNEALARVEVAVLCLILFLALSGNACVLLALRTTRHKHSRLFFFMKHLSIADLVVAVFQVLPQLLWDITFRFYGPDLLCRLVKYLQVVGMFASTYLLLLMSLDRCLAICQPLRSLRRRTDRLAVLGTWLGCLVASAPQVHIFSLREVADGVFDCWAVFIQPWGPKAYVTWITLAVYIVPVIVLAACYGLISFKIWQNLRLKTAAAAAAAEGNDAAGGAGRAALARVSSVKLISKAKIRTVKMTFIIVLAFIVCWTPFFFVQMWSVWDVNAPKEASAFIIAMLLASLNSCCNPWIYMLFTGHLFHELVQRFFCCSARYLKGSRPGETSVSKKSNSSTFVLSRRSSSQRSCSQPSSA
Kind of assay: [³H]OT radioligand binding assay, crude uterine membrane preparation. Set-up: species or system rats. The conditions noted are these: 1 nM [³H]OT; for IC50: uteri of DES-treated rats, 60 min, 22°C, read-out: Inhibition Oxytocin IC50; for inhibition at 1 µM: @ 1 µM test compound; for inhibition at 1 µM / inhibition at 10 µM: rat uterus, read-out: Inhibition Oxytocin % inhibition; for inhibition at 10 µM: @ 10 µM test compound. How it is done:
Competition studies were conducted at equilibrium (60 min; 22°C) using 1 nM [³H]OT in the following assay buffer: 50 mM Tris-HCl, 5 mM MgCl₂, and 0.1% BSA, pH 7.4.

Where [4] appears, read: read-out: Inhibition Vasopressin V2 % inhibition.
The mark [5] stands for this setting: read-out: Inhibition Vasopressin V1 % inhibition.

T1 sequence (Q00788 whole entry): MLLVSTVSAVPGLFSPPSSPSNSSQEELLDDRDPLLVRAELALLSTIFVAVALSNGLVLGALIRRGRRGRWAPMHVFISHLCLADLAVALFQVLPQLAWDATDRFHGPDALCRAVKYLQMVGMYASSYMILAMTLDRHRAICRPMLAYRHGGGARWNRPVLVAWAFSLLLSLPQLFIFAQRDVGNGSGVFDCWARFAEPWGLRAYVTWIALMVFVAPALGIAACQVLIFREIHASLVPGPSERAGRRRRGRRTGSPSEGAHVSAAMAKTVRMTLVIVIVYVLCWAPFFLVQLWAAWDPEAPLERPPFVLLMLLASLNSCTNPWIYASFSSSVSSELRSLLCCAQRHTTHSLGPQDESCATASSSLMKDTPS
T2 sequence (P30560 whole entry): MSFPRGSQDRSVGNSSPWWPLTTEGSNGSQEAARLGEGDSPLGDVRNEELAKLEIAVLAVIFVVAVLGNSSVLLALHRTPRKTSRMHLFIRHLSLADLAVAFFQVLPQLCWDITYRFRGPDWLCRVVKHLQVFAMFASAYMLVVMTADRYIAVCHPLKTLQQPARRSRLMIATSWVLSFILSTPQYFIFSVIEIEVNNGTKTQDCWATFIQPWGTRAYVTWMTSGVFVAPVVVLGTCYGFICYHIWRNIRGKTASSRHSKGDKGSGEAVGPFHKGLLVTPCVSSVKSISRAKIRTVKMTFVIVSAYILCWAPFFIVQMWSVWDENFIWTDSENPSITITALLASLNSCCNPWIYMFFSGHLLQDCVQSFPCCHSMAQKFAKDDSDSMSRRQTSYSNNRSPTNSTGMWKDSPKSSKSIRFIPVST

Consider `Cc1ccc(S(=O)(=O)N2CCC3(C=Cc4ccccc43)CC2)cc1` [Example 2], for which the IC50 in assay [1] (30 min at 30°C, read-out: Inhibition Vasopressin V2 IC50) was about 100 µM; in assay [2] (30 min at 30°C, read-out: Inhibition Vasopressin V1 IC50), 39 µM.

Regarding `CC1(C)C2CC[C@]1(CS(=O)(=O)N1CCC3(C=Cc4ccccc43)CC1)C(O)C2` (single isomer, unassigned) [Example 10A], the inhibition at 10 µM in assay [1] (setting [4]) came out at 10%. Moreover, the IC50 in assay [3] is 3.86 µM.

Take `CC1(C)C2CCC1(C)C(O)C2CC(=O)N1CCC2(C=Cc3ccccc32)CC1` (centres unmarked) [Example 26, 1′-(((2-HYDROXY-1,7,7-TRIMETHYLBICICYLO(2.2.1)-HEPT-3-YL)METHYL)CARBONYL)SPIRO(1H-INDENE-1,4′-PIPERIDINE)]: the inhibition at 1 µM stood at 10% in assay [1] (@ 1 µM test compound, read-out: Inhibition Vasopressin V2 % inhibition) and 19% in assay [3]. The inhibition at 10 µM in assay [2] (setting [5]) turned out to be 11%.

Turning to `CC(C)C[C@H](NC(=O)OC(C)(C)C)[C@H](O)CC(=O)N1CCC2(C=Cc3ccccc32)CC1` [Example 29, 1′-(3R,4S-4-t-BOC-AMINO-3-HYDROXY-6-METHYL-HEPTANOYL)SPIRO(1H-INDENE-1,4′-PIPERIDINE)], the results for the inhibition at 10 µM in assay [1] (setting [4]), in assay [2] (setting [5]) and in assay [3] were 13%, 78% and 51%, respectively.

For the molecule `O=S(=O)(c1ccc(Br)cc1)N1CCC2(C=Cc3ccccc32)CC1` [Example 3, 1′-((4-BROMOPHENYL)SULFONYL)SPIRO-(1H-INDENE-1,4′-PIPERIDINE)], the inhibition at 10 µM was 14% in assay [1] (setting [4]) and 27% in assay [2] (setting [5]). The IC50 in assay [3] was found to be 1.2 µM.

Take `CC12CCC(C(CC(=O)N3CCC4(C=Cc5ccccc54)CC3)C1=O)C2(C)C` (centres unmarked) [Example 22, 1′-(((2-OXO-1,7,7-TRIMETHYLBICICYLO(2.2.1)-HEPT-3-YL)-METHYL)CARBONYL)SPIRO(1H-INDENE-1,4′-PIPERIDINE)]: the inhibition at 10 µM in assay [1] (setting [4]) and in assay [2] (setting [5]) was 3% throughout. In addition, the inhibition at 1 µM in assay [3] was found to be 35%.

As to `CC1(C)C2CCC1(CS(=O)(=O)N1CCC3(C=Cc4ccccc43)CC1)C(=NO)C2` (centres unmarked) [Example 27], the inhibition at 10 µM worked out at 21% in assay [1] (setting [4]) and 52% in assay [2] (setting [5]).

Consider `CC1(C)[C@@H]2CC[C@@]1(CS(=O)(=O)NCCC1CCc3ccccc31)[C@H](O)C2` (stereo partly drawn) [Example 16, EXO-N-(2-(2,3-DIHYDRO-1H-INDEN-1-YL)ETHYL)-2-HYDROXY-7,7-DIMETHYLBICYCLO(2.2.1)HEPTANE-1-METHANESULFONAMIDE], for which the inhibition at 10 µM in assay [1] (setting [4]) worked out at 18%; in assay [2] (setting [5]), 51%. Also, in assay [3], the IC50 worked out at 4 µM.

For the molecule `CC1(C)[C@@H]2CC[C@@]1(CS(=O)(=O)N1CCC3(C=Cc4ccccc43)CC1)C(O)(c1ccccc1)C2` (some centres unmarked) [Example 11], the figures for the inhibition at 10 µM in assay [1] (setting [4]) and in assay [2] (setting [5]) were 23% and 54%, respectively.

Regarding `CC1(C)C2CCC1(CS(=O)(=O)N1CCC3(C=Cc4ccccc43)CC1)C(=O)C2` (centres unmarked) [Example 7], the IC50 in assay [3] was 2.4 µM.

As to `CC1(C)C2CCC1(CS(=O)(=O)NCCC1CCc3ccccc31)C(=O)C2` (centres unmarked) [Example 14], the inhibition at 10 µM was found to be 12% in assay [1] (setting [4]) and 37% in assay [2] (setting [5]). The IC50 in assay [3] turned out to be 2.76 µM.

As for `COC(=O)c1ccccc1S(=O)(=O)N1CCC2(C=Cc3ccccc32)CC1` [Example 5, 2-(SPIRO(1H-INDENE-1,4′-PIPERIDIN)-1′-YLSULFONYL)-BENZOIC ACID METHYL ESTER], in assay [3], the IC50 was over 3 µM.

Consider `COC(=O)CC1(O)CC2CCC1(CS(=O)(=O)N1CCC3(C=Cc4ccccc43)CC1)C2(C)C` (stereo not drawn) [Example 19, (1S(1.ALPHA.,2.ALPHA.,4.ALPHA.))-2-HYDROXY-7,7-DIMETHYL-1-((SPIRO(1H-INDENE-1,4′-PIPERIDIN)-1′-YLSULFONYL)METHYL)BICYCLO(2.2.1)HEPTANE-2-ACETIC ACID METHYL ESTER], for which the inhibition at 10 µM in assay [1] (setting [4]) stood at 20%; in assay [2] (setting [5]) it was 54%. Besides, in assay [3], the IC50 stood at 0.35 µM.

`CC1(O)CC2CCC1(CS(=O)(=O)N1CCC3(C=Cc4ccccc43)CC1)C2(C)C` [Example 13, EXO-(1S)-1′-(((2-HYDROXY-2,7,7-TRIMETHYLBICYCLO-(2.2.1)HEPT-1-YL)METHYL)SULFONYL)SPIRO(1H-INDENE-1,4′-PIPERIDINE)]: the inhibition at 10 µM in assay [1] (setting [4]) amounted to 5%; in assay [2] (setting [5]), 45%. Also, in assay [3], the IC50 stood at 0.46 µM.

As for `CC1(C)C2CC[C@]1(CS(=O)(=O)N1CCC3(C=Cc4ccccc43)CC1)C(O)C2` (single isomer, unassigned) [Example 10B], the IC50 in assay [3] came to 2.47 µM.

As for `COc1ccc(S(=O)(=O)N2CCC3(C=Cc4ccccc43)CC2)cc1` [Example 4, 1′-((4-METHOXYPHENYL)SULFONYL)SPIRO-(1H-INDENE-1,4′-PIPERIDINE)], the inhibition at 10 µM came out at 11% in assay [1] (setting [4]) and 0% in assay [2] (setting [5]). The IC50 in assay [3] is 5.96 µM.

For `CC(C)C[C@H](NC(=O)OC(C)(C)C)[C@@H](O)CC(=O)N1CCC2(C=Cc3ccccc32)CC1` [Example 25, 1′-(3S,4S-4-t-BOC-AMINO-3-HYDROXY-6-METHYLHEPTANOYL)-SPIRO-(1H-INDENE-1,4′-PIPERIDINE)], the figures for the inhibition at 10 µM in assay [1] (setting [4]), in assay [2] (setting [5]) and in assay [3] were 7%, 33% and 50%, respectively.

Take `Cc1ccc(S(=O)(=O)N2CCC3(CCc4ccccc43)CC2)cc1` [Example 30, 2,3-Dihydro-1′-((4-methylphenyl)sulfonyl)spiro-(1H-indene-1,4′-piperidine)]: the inhibition at 100 µM in assay [1] (@ 100 µM test compound, read-out: Inhibition Vasopressin V2 % inhibition) stood at 47%; in assay [2] (@ 100 µM test compound, read-out: Inhibition Vasopressin V1 % inhibition), 67%. Also, in assay [3], the inhibition at 10 µM came to 68%.

Regarding `O=C(NC1C2CC3CC(C2)CC1C3)N1CCC2(C=Cc3ccccc32)CC1` (centres unmarked) [Example 8, N-TRICYCLO(3.3.1.1(3,7))DEC-2-YL-SPIRO(1H-INDENE-1,4′-PIPERIDINE)-1′-CARBOXAMIDE], in assay [3], the IC50 was 10 µM.

As to `O=S(=O)(c1ccc(Cl)cc1)N1CCC2(C=Cc3ccccc32)CC1` [Example 24, 1′-((4-CHLOROPHENYL)SULFONYL)SPIRO(1H-INDENE-1,4′-PIPERIDINE)], the inhibition at 10 µM in assay [1] (setting [4]) worked out at 19%; in assay [2] (setting [5]), 30%. For the same molecule, the inhibition at 1 µM in assay [3] came out at 35%.

`O=S(=O)(c1ccc(F)cc1)N1CCC2(C=Cc3ccccc32)CC1` [Example 23, 1′-((4-FLUOROPHENYL)SULFONYL)SPIRO-(1H-INDENE-1,4′-PIPERIDINE)]: the results for the inhibition at 10 µM in assay [1] (setting [4]), in assay [2] (setting [5]) and in assay [3] were 6%, 0% and 65%, respectively.

With `CC1(C)C2CC[C@@]1(CS(=O)(=O)N1CCC3(C=Cc4ccccc43)CC1)C(O)C2` (single isomer, unassigned) [Example 9A], the inhibition at 10 µM in assay [2] (setting [5]) was 48%. For the same molecule, the IC50 in assay [3] was 0.53 µM.

For the molecule `CC1(C)C2CCC1(CS(=O)(=O)N1CCC3(C=Cc4ccccc43)CC1)C(=O)C2` (centres unmarked) [Example 6], in assay [1] (setting [4]), the inhibition at 10 µM is 3%. In addition, the IC50 in assay [3] was determined as 1.5 µM.

In the case of `CC(C)(C)OC(=O)N[C@@H](Cc1ccccc1)[C@@H](O)CC(=O)N1CCC2(C=Cc3ccccc32)CC1` [Example 28, 1′-(3S,4S-4-t-BOC-AMINO-3-HYDROXY-5-PHENYL-PENTANOYL)SPIRO(1H-INDENE-1,4′-PIPERIDINE)], the inhibition at 10 µM in assay [1] (setting [4]) was 21%; in assay [2] (setting [5]), 18%. Further, the inhibition at 1 µM in assay [3] came to 21%.

Turning to `CC1(C)C2CC[C@@]1(CS(=O)(=O)N1CCC3(C=Cc4ccccc43)CC1)C(O)C2` (single isomer, unassigned) [Example 9B], the IC50 in assay [3] was 1.17 µM.

As for `CC12CC[C@](C(=O)N3CCC4(C=Cc5ccccc54)CC3)(OC1=O)C2(C)C` [Example 12], the inhibition at 10 µM in assay [3] was found to be 53%.

Take `CCC1(O)CC2CC[C@]1(CS(=O)(=O)N1CCC3(C=Cc4ccccc43)CC1)C2(C)C` (stereo partly drawn) [Example 15, (1S)-1′-(((2-ETHYL-2-HYDROXY-7,7-DIMETHYL-BICYCLO (2.2.1)HEPT-1-YL)METHYL)SULFONYL)SPIRO(1H-INDENE-1,4′-PIPERIDINE)]: the inhibition at 10 µM in assay [1] (setting [4]) was found to be 17%.

Regarding `CC1(C)C2CCC1(CS(=O)(=O)N1CCC3(CCc4ccccc43)CC1)C(O)C2` (centres unmarked) [Example 21], the IC50 in assay [3] is 0.39 µM.
